Measured values published in PubChem BioAssay (NCI).
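Five concentrations, 48 hours, 96-well plates. The concentration for 50% growth inhibition is given as GI50. TGI marks complete inhibition of growth.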

How the values were obtained:
Test in all cases: inhibition of tumour cell growth, NCI panel, 48 h; in the data active means GI50 below about 0.43 µM; inactive means the rest
[1] = tested on: HL-60(TB) leukemia
[2] = tested on: SNB-75 CNS
[3] = tested on: IGROV1 ovarian
[4] = tested on: HOP-62 NSCLC
[5] = tested on: SW-620 colon
[6] = tested on: MALME-3M melanoma
[7] = tested on: MOLT-4 leukemia
[8] = tested on: HS 578T breast
[9] = tested on: SF-268 CNS
[10] = tested on: SF-539 CNS
[11] = tested on: HCT-15 colon
[12] = tested on: PC-3 prostate
[13] = tested on: HOP-92 NSCLC
[14] = tested on: T-47D breast
[15] = tested on: RPMI-8226 leukemia
[16] = tested on: OVCAR-8 ovarian
[17] = tested on: UO-31 renal
[18] = tested on: CCRF-CEM leukemia
[19] = tested on: MCF7 breast
[20] = tested on: U251 CNS
[21] = tested on: DU-145 prostate
[22] = tested on: SNB-19 CNS
[23] = tested on: COLO 205 colon
[24] = tested on: MDA-MB-231 breast
[25] = tested on: ACHN renal
[26] = tested on: K-562 leukemia
[27] = tested on: UACC-62 melanoma
[28] = tested on: M14 melanoma
[29] = tested on: KM12 colon
[30] = tested on: SN12C renal
[31] = tested on: RXF 393 renal
[32] = tested on: HCC-2998 colon
[33] = tested on: SK-MEL-5 melanoma
[34] = tested on: NCI-H460 lung
[35] = tested on: LOX IMVI melanoma
[36] = tested on: SF-295 CNS
[37] = tested on: CAKI-1 renal
[38] = tested on: EKVX NSCLC
[39] = tested on: SR leukemia
[40] = tested on: SK-MEL-28 melanoma
[41] = tested on: OVCAR-4 ovarian
[42] = tested on: MDA-MB-435
[43] = tested on: HCT-116 colon
[44] = tested on: OVCAR-5 ovarian
[45] = tested on: 786-0 renal
[46] = tested on: UACC-257 melanoma
[47] = tested on: NCI-H226 lung
[48] = tested on: SK-OV-3 ovarian
[49] = tested on: NCI-H23 lung
[50] = tested on: A549 NSCLC
[51] = tested on: NCI/ADR-RES ovarian
[52] = tested on: A498 renal
[53] = tested on: OVCAR-3 ovarian

CC(C)COc1nc2c(c(=O)n(C)c(=O)n2C)n1C
inactive: GI50 [1] > 100 µM | GI50 [2] 47 µM | GI50 [3] 544 nM | GI50 [4] > 100 µM | GI50 [5] > 100 µM | GI50 [6] > 100 µM | GI50 [7] > 100 µM | GI50 [8] 64.1 µM | GI50 [9] > 100 µM | GI50 [10] > 100 µM | GI50 [11] > 100 µM | GI50 [12] > 100 µM | GI50 [13] > 100 µM | GI50 [14] > 100 µM | GI50 [15] > 100 µM | GI50 [16] > 100 µM | GI50 [17] > 100 µM | GI50 [18] > 100 µM | GI50 [19] > 100 µM | GI50 [20] > 100 µM | GI50 [21] > 100 µM | GI50 [22] > 100 µM | GI50 [23] > 100 µM | GI50 [24] > 100 µM | GI50 [25] > 100 µM | GI50 [26] > 100 µM | GI50 [27] > 100 µM | GI50 [28] > 100 µM | GI50 [29] > 100 µM | GI50 [30] > 100 µM | GI50 [31] > 100 µM | GI50 [32] > 100 µM | GI50 [33] > 100 µM | GI50 [34] > 100 µM | GI50 [35] > 100 µM | GI50 [36] > 100 µM | GI50 [37] 18.2 µM | GI50 [38] > 100 µM | GI50 [39] > 100 µM | GI50 [40] > 100 µM | GI50 [41] > 100 µM | GI50 [42] > 100 µM | GI50 [43] > 100 µM | GI50 [44] > 100 µM | GI50 [45] > 100 µM | GI50 [46] > 100 µM | GI50 [47] > 100 µM | GI50 [48] > 100 µM | GI50 [49] > 100 µM | GI50 [50] > 100 µM | GI50 [51] > 100 µM | GI50 [52] > 100 µM | GI50 [53] > 100 µM
> 100 µM: TGI [1] | TGI [2] | TGI [3] | TGI [4] | TGI [5] | TGI [6] | TGI [7] | TGI [8] | TGI [9] | TGI [10] | TGI [11] | TGI [12] | TGI [13] | TGI [14] | TGI [15] | TGI [16] | TGI [17] | TGI [18] | TGI [19] | TGI [20] | TGI [21] | TGI [22] | TGI [23] | TGI [24] | TGI [25] | TGI [26] | TGI [27] | TGI [28] | TGI [29] | TGI [30] | TGI [31] | TGI [32] | TGI [33] | TGI [34] | TGI [35] | TGI [36] | TGI [37] | TGI [38] | TGI [39] | TGI [40] | TGI [41] | TGI [42] | TGI [43] | TGI [44] | TGI [45] | TGI [46] | TGI [47] | TGI [48] | TGI [49] | TGI [50] | TGI [51] | TGI [52] | TGI [53]
